Patent US7416741B2, “Copper lowering treatment of inflammatory and fibrotic diseases” (The Regents of the University of Michigan, priority 2002, dated 2008)

Tests used:
α-smooth muscle actin = experiment: α-Smooth muscle actin assay (ELISA) in lung homogenates; type: in vivo, mouse; details: Ex 2 Exp 2; day 21; p=0.09
Description: α-Smooth muscle actin assay. De novo appearance of myofibroblasts is a hallmark of active fibrosis, and these cells are known as the primary source of interstitial collagen in pulmonary fibrosis (See e.g., K Zhang et al., Am. J. Pathol, 145:114-125 [1994]). Since α-smooth muscle actin is a marker of myofibroblast differentiation, the level of this protein in lung tissue homogenates was measured by ELISA as before (use same reference above for TGFβ assay by ELISA).

[1] = tested on: bleomycin mouse model of pulmonary fibrosis; experiment: Microscopic evaluation of the lungs (H&E, Masson-trichrome); type: in vivo
Source text: Microscopic evaluation of the lungs. For morphological evaluation of fibrosis, lungs were inflated with formalin at the time of sacrifice, and after overnight fixation were embedded in paraffin and sections prepared for H&E staining as well as for Masson-trichrome staining for evaluation of collagen deposition as previously described (M Gharaee-Kermani et al., J. Leukoc. Biol., 64:657-666 [1998]).

[2] = sheep; intravenous 99Mo labeled TM; cited from earlier work
[3] = tested on: carbon tetrachloride (CT) mouse model; experiment: Liver hydroxyproline and histology in the CT mouse model; type: in vivo; details: Ex 6
Description: The carbon tetrachloride (CT) mouse model produces much more liver fibrosis (cirrhosis) than the Con A model. In this model carbon tetrachloride is injected intraperitoneally twice weekly, and after 12 weeks, a well-established cirrhosis should be present. This can be evaluated histologically, and can be quantitated by measuring liver hydroxyproline, a major amino acid in collagen. The TM was started in TM treated animals at the beginning of week 5 and the animals were sacrificed at week 12.

[4] = tested on: Wilson's disease patients; experiment: Open label study of TM for initial treatment of neurologically presenting Wilson's disease patients; type: in vivo, human
Source text: The results in the first patient studied can be used to illustrate several points. For the first seven days, the patient received TM only with meals (tid with meals). This produced the immediate negative copper balance one would expect from the first mechanism of action (blockade of copper absorption when given with meals). After the first seven days, TM was given between meals as well (tid with meals, and tid between meals). This led to the immediate rise in plasma copper expected from absorption of TM into the blood, and formation of a complex of copper, TM, and albumin. The copper complexed with TM and albumin is unavailable for cellular uptake, and this copper is therefore non-toxic. There is a 1:1 stochiometric relationship between molybdenum and copper in this complex. Knowing the molybdenum level in the blood, and the ceruloplasmin level (ceruloplasmin also contains copper that is non-toxic), one can calculate how much of the plasma copper is not bound to one or the other. This so-called “free copper” (non-ceruloplasmin plasma copper) is the potentially toxic copper. When reduced to zero, the plasma copper-molybdenum “gap” is closed. This took 16 days in the first patient (9 days after adding the between meal doses). Since in the brain (and in other organs), free copper is in equilibrium with the blood, decreasing the blood free copper to a low level begins the process of lowering the brain level of free (toxic) copper.
The inventors have treated initially 56 Wilson's disease patients with TM, all of whom presented with neurological or psychiatric disease, in an open label study. These patients were all diagnosed by standard criteria. […] Some of them were treated briefly with other agents prior to this trial. Two patients had psychiatric but not neurological symptoms.
With three exceptions in the earliest part of the study, all patients received a dose of 20 mg tid with meals, or qid with three meals and a snack. Thus, the only difference between a patient receiving 120 mg and 140 mg total dose is that the former was receiving 20 mg tid, or 60 mg, with meals, and the latter was receiving 20 mg qid, or 80 mg with meals plus a snack. The rest of the total daily dose was divided up into three equal doses and given between meals.
Measuring trichloracetic acid (TCA) soluble copper of the plasma is somewhat useful in assessing the impact of TM therapy on copper metabolism in Wilson's disease. Generally, a high proportion of plasma copper in these patients is TCA soluble (it averaged 56% in patients which is 27 p.g/dl). All of the non-ceruloplasmin plasma copper is TCA soluble, and a somewhat variable portion of the ceruloplasmin copper is also TCA soluble. Because the ceruloplasmin levels are usually rather low in Wilson's disease, most of the plasma copper is TCA soluble. The copper in the TM/albumin/copper complex in the blood is TCA insoluble. Thus, as therapy proceeds, the fraction of the plasma copper that is TCA soluble becomes smaller. […] The TCA soluble fraction cannot be used as an absolute endpoint, for example attempting to reduce it to zero, because a small and somewhat variable soluble fraction is usually present due to plasma ceruloplasmin. However, the significant mean reduction from 27 to 15 p.g/dl illustrates the beneficial effect that TM therapy has on the status of the potentially toxic plasma copper in these patients. Further evidence of the desirable impact of TM therapy on copper metabolism is shown by reduction of mean urine copper values during the latter part of TM therapy, compared to baseline values.
TM has a quick and favorable impact on copper metabolism, reducing the levels of potentially toxic copper of the blood and as contemplated the rest of the body as well. The primary clinical objective in treatment of Wilson's disease is to gain control over copper toxicity while not allowing worsening of the disease or symptoms. […]

cancer patients = details: clinical phase ½ study of metastatic and advanced cancers; cited from earlier work
TGFβ = experiment: Lung TGFβ levels (ELISA or PAI-1 promoter-luciferase cell line), bleomycin model; type: in vivo, mouse
Description: Lung TGFβ levels were measured using either ELISA with a kit from R&D Systems (Minneapolis, Minn.), or using a cell line stably transfected with a plasminogen activator inhibitor-1 (PAI-1) promoter-luciferase construct (M Abe et al., Analytical Biochemistry, 216:276-284 [1994]). Briefly for the latter assay, mink lung epithelial cells transfected with the PAI-1 promoter construct were incubated with the indicated activated (by pre-acidification) test samples diluted (1:2 dilution) in fresh media. After a 24 hr incubation, the cells were lysed with reporter lysis buffer (Promega, Madison, Wis.). Luciferase activity was measured by the luciferase assay system (Promega) and read using a Reporter microplate luminometer (Turner Designs, Sunnyvale, Calif.). Human TGFβ1 (R&D Systems) was used as a standard.

[5] = among the seven anemia patients

For [SH-].[SH-].[S]=[Mo]=[S] [TM, tetrathiomolybdate], the “lung SMA (α-smooth muscle actin) protein levels, bleomycin-induced increase” value (α-smooth muscle actin) was “inhibited most of the increase”, the “collagen deposition (Masson-trichrome)” value ([1]; Ex 1 Exp 1, TM treated group vs bleomycin only) was “much less collagen deposition” and the “lung histopathology (H&E): patches of fibrosis and inflammatory cells” value ([1]; Ex 1 Exp 1, TM-treated bleomycin animals vs bleomycin alone) was “substantially smaller with lesser degrees of cellular infiltration”. For the same compound, the “histopathological evaluation of fibrotic lesions” value ([1]; Ex 1 Exp 2, increasing TM dose) was “diminution of fibrotic lesion size with increasing dose of TM”, the excreted in feces [2] was 5% and the excreted in urine [2] was “over 90%”. For the same compound, the “half-time of slow disappearance from plasma” value [2] was “about 40 h”, the liver histology ([3]; CT/TM treated liver) was “essentially normal” and the “liver fibrosis as evaluated by hydroxyproline” value ([3]; CT/TM, after week 12) was “blocks all fibrosis”. For the same compound, the “patients with reversible anemia/bone marrow depression” value ([4]; 56 patients) was “seven”, the “patients with elevation of transaminase values (serum AST and ALT)” value ([4]; all treated with 150 mg TM/day or higher) was “four of the patients” and the “patients with reduction in platelet count” value [4, 5] was “Three of the patients”. For the same compound, the “patients with reduction in white blood cell count” value [4, 5] was “four of the patients”, the fall in hemoglobin ([4]; average in the seven anemia patients) was 3.4% and the overtreatment incidence ([4]; dose of 180 mg/day or over) was 6 of 37. For the same compound, the overtreatment incidence ([4]; dose of 150 or lower) was 1 of 13, the “patients with change of more than 5 units in quantitative neurological exam (significant worsening)” value ([4]; during weeks of TM administration, two patients) was 4% and the “time to close the plasma copper-molybdenum gap (free copper reduced to zero)” value ([4]; first patient, TM tid with meals, from day 7 also tid between meals) was 16 days. The “quantitative speech exam scores” value ([4]; initial 8 weeks of TM therapy) was “No patient shows significant (more than 2.0 units) reduction in scores”, the “average freedom from progression in evaluable patients” value (cancer patients) was 11 months and the “lung TGFβ protein level (ELISA), bleomycin-induced increase” value (TGFβ; Ex 2 Exp 1, bleomycin/TM, day 7, p=0.06) was “inhibited this increase”. For the same compound, the “lung TGFβ protein levels (PAI-1 promoter-luciferase), bleomycin-induced increase” value (TGFβ; Ex 2 Exp 2, TM from day 5, day 21, not statistically significant) was “completely inhibited this increase” and the “lung TGFβ protein levels (ELISA)” value (TGFβ; Ex 2 Exp 3, TM started 5 days prior to bleomycin (Bleo/TM-5), p=0.04) was “significantly inhibited”.
